From US10351575B2, “Bicyclic urea, thiourea, guanidine and cyanoguanidine compounds useful for the treatment of pain” (Array BioPharma Inc., priority 2012, dated 2019)

Columns and labels:
Assay in all cases: KinaseProfiler off-target kinase profiling
Assay type in all cases: biochemical
Conditions in all cases: 10 μM, ATP near Km
[1] = molecular target: AKT1 (Homo sapiens (Human), UniProt P31749)
In short: (§1)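 Single-point profiling: the compound is run at 10 μM against the kinase, ATP being set near that enzyme's Km. Duplicate determinations are averaged and expressed as POC.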

[2] = molecular target: AKT2 (Homo sapiens (Human), UniProt P31751)
In short: as §1

[3] = molecular target: CAMK4 (Homo sapiens (Human), UniProt Q16566)
In short: as §1

[4] = molecular target: CDK2/cyclinA (Homo sapiens (Human), UniProt P24941)
In short: as §1

[5] = molecular target: CDK5/p35 (Homo sapiens (Human), UniProt Q00535)
In short: as §1

[6] = molecular target: CK1gamma2 (Homo sapiens (Human), UniProt P78368)
In short: as §1

[7] = molecular target: DMPK (Homo sapiens (Human), UniProt Q09013)
In short: as §1

[8] = molecular target: EphA5 (Homo sapiens (Human), UniProt P54756)
In short: as §1

[9] = molecular target: EphB3 (Homo sapiens (Human), UniProt P54753)
In short: as §1

[10] = molecular target: Flt1 (Homo sapiens (Human), UniProt P17948)
In short: as §1

[11] = molecular target: GRK5 (Homo sapiens (Human), UniProt P34947)
In short: as §1

[12] = molecular target: JAK2 (Homo sapiens (Human), UniProt O60674)
In short: as §1

[13] = molecular target: JNK2alpha2 (Homo sapiens (Human), UniProt P45984)
In short: as §1

[14] = molecular target: KIT (Homo sapiens (Human), UniProt P10721)
In short: as §1

[15] = molecular target: MAPKAP-K2 (Homo sapiens (Human), UniProt P49137)
In short: as §1

[16] = molecular target: MKK4_m (Mus musculus (Mouse), UniProt P47809)
In short: as §1

[17] = molecular target: MKK6 (Homo sapiens (Human), UniProt P52564)
In short: as §1

[18] = molecular target: MSK2 (Homo sapiens (Human), UniProt O75676)
In short: as §1

[19] = molecular target: MuSK (Homo sapiens (Human), UniProt O15146)
Sequence of MuSK (O15146 24-869): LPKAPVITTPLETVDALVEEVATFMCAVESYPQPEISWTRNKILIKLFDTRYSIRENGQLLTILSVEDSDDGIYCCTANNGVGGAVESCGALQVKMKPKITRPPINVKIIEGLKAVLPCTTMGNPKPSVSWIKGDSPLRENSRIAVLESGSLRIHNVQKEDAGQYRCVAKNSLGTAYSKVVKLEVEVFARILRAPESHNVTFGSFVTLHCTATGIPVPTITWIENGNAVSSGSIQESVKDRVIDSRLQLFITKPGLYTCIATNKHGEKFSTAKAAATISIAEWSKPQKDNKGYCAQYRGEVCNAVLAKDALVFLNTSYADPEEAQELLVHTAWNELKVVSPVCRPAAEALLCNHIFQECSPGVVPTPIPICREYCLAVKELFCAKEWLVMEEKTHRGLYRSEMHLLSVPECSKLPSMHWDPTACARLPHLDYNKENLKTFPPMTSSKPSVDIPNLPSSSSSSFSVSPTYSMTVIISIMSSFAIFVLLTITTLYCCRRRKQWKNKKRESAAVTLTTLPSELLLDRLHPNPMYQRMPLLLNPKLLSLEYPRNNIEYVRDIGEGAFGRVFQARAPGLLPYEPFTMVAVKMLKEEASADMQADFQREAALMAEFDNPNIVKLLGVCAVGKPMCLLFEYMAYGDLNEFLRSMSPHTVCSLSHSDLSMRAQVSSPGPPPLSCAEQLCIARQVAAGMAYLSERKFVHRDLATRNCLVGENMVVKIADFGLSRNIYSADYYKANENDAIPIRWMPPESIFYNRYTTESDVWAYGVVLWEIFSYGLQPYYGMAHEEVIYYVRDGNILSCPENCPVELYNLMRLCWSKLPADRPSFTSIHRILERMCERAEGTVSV
In short: as §1

[20] = molecular target: NEK7 (Homo sapiens (Human), UniProt Q8TDX7)
In short: as §1

[21] = molecular target: PKCdelta (Homo sapiens (Human), UniProt Q05655)
In short: as §1

[22] = molecular target: PKCepsilon (Homo sapiens (Human), UniProt Q02156)
In short: as §1

[23] = molecular target: PKCzeta (Homo sapiens (Human), UniProt Q05513)
Sequence of PKCzeta (Q05513 whole entry): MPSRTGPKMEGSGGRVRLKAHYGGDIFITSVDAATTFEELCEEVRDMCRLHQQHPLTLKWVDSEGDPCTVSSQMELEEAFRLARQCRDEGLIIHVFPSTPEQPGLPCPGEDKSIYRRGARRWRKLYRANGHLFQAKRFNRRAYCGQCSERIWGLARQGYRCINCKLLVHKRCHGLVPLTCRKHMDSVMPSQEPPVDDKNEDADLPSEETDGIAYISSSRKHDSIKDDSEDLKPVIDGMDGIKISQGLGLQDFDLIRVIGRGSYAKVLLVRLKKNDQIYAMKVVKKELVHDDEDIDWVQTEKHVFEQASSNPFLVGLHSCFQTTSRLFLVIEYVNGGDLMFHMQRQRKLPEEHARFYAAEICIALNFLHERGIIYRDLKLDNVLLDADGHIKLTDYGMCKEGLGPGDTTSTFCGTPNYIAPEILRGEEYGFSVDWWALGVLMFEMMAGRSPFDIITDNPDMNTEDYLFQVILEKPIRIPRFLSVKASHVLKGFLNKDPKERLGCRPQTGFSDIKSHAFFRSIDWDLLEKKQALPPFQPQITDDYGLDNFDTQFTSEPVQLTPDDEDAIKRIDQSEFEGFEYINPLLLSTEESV
In short: as §1

[24] = molecular target: PRK2 (Homo sapiens (Human), UniProt Q16513)
In short: as §1

[25] = molecular target: PhKgamma2 (Homo sapiens (Human), UniProt P15735)
Sequence of PhKgamma2 (P15735 whole entry): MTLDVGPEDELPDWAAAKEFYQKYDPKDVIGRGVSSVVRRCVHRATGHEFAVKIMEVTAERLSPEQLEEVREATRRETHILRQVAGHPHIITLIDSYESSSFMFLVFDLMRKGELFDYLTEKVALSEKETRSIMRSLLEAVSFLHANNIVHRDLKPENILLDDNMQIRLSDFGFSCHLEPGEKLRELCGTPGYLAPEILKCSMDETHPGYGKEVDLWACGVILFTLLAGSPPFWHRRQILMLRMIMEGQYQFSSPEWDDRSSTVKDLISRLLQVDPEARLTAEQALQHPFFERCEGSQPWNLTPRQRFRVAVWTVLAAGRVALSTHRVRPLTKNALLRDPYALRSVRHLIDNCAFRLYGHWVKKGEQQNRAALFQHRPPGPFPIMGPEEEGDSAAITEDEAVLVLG
In short: as §1

[26] = molecular target: Pim-2 (Homo sapiens (Human), UniProt Q9P1W9)
In short: as §1

[27] = molecular target: Plk2 (Homo sapiens (Human), UniProt Q9NYY3)
In short: as §1

[28] = molecular target: Plk3 (Homo sapiens (Human), UniProt Q9H4B4)
Sequence of Plk3 (Q9H4B4 whole entry): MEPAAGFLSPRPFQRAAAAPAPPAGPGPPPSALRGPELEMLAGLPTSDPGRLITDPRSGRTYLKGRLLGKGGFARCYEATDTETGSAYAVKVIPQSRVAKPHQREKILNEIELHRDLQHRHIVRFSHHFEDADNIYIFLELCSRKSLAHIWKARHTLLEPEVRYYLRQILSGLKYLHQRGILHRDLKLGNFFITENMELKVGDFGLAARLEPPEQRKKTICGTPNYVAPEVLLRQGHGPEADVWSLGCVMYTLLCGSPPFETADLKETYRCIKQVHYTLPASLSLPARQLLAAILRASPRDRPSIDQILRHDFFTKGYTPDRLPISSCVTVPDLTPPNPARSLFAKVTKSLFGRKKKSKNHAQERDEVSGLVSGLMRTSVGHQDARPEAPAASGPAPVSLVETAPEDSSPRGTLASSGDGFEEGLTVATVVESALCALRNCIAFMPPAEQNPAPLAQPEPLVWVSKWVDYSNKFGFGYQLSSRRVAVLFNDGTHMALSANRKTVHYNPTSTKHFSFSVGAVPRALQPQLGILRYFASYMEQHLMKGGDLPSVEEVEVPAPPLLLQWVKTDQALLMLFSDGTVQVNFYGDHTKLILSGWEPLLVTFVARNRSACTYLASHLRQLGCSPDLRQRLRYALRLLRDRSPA
In short: as §1

[29] = molecular target: Rse (Homo sapiens (Human), UniProt Q06418)
Sequence of Rse (Q06418 41-890): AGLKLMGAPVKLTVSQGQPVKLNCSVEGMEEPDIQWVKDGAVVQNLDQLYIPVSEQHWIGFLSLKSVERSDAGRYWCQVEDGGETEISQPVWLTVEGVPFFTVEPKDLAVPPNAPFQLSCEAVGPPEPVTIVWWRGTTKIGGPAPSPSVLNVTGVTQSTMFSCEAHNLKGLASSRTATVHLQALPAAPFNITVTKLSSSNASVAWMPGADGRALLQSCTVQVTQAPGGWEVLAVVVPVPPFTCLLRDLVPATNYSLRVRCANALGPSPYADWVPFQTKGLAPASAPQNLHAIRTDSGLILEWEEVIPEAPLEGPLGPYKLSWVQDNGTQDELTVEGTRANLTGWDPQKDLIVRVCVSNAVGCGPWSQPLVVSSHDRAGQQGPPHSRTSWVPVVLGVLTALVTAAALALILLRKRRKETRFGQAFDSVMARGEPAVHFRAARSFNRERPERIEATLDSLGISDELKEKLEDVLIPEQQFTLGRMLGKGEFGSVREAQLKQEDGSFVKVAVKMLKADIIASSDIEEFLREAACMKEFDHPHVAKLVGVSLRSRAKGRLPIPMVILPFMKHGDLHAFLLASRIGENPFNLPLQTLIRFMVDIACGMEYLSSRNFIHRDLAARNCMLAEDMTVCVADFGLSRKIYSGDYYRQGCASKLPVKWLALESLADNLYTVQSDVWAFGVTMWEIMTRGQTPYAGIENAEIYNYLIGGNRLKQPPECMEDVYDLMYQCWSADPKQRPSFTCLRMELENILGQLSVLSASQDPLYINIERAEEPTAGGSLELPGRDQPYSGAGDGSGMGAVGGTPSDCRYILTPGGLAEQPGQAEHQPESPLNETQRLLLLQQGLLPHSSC
In short: as §1

[30] = molecular target: SGK2 (Homo sapiens (Human), UniProt Q9HBY8)
In short: as §1

[31] = molecular target: SRC (Homo sapiens (Human), UniProt P12931)
Sequence of SRC (P12931 whole entry, looked up): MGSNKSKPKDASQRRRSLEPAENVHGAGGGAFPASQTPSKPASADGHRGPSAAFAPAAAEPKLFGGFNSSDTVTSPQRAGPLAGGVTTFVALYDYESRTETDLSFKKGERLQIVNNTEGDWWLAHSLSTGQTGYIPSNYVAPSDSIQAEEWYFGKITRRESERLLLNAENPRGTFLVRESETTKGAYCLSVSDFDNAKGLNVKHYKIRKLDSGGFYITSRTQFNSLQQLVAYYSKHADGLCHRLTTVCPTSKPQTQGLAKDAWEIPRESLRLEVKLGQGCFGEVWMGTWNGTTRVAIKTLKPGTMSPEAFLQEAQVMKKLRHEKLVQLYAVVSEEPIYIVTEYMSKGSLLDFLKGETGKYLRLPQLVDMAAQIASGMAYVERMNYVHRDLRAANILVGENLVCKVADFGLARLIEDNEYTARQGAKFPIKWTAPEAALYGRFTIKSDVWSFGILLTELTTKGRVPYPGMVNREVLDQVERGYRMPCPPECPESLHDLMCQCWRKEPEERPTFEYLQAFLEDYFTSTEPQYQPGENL
In short: as §1

[32] = molecular target: STK33 (Homo sapiens (Human), UniProt Q9BYT3)
Sequence of STK33 (Q9BYT3 whole entry): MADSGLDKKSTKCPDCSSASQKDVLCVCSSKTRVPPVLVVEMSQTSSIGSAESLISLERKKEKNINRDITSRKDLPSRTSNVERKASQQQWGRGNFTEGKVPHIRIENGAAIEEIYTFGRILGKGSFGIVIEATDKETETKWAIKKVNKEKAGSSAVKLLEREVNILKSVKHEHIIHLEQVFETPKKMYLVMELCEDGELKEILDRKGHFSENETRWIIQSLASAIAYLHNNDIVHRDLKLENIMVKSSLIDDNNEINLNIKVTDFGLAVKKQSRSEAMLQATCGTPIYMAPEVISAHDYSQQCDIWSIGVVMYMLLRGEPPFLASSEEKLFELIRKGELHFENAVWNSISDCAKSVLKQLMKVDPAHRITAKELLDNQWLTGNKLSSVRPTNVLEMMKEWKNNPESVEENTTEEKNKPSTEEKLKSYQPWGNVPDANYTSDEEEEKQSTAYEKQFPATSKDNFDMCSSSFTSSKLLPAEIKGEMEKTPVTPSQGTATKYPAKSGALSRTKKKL
In short: as §1

[33] = molecular target: TAO1 (Homo sapiens (Human), UniProt Q7L7X3)
In short: as §1

[34] = molecular target: TBK1 (Homo sapiens (Human), UniProt Q9UHD2)
In short: as §1

[35] = molecular target: TLK2 (Homo sapiens (Human), UniProt Q86UE8)
In short: as §1

[36] = molecular target: TSSK1 (Homo sapiens (Human), UniProt Q9BXA7)
Sequence of TSSK1 (Q9BXA7 whole entry): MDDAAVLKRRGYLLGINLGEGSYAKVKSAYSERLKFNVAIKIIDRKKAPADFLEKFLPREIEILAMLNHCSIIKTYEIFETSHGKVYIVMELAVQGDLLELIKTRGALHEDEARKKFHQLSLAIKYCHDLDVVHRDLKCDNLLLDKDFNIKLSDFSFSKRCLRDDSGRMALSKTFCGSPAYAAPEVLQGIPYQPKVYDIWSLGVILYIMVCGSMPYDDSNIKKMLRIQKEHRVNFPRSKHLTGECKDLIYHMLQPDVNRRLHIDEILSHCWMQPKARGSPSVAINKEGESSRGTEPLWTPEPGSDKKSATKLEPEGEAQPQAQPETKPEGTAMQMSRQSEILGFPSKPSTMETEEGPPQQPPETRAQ
In short: as §1

[37] = molecular target: TrkB (Homo sapiens (Human), UniProt Q16620)
In short: as §1

[38] = molecular target: ULK2 (Homo sapiens (Human), UniProt Q8IYT8)
In short: as §1

[39] = molecular target: p38beta (Homo sapiens (Human), UniProt Q15759)
In short: as §1

Avg. POC [1] [POC]	Avg. POC [2] [POC]	Avg. POC [3] [POC]	Avg. POC [4] [POC]	Avg. POC [5] [POC]	Avg. POC [6] [POC]	Avg. POC [7] [POC]	Avg. POC [8] [POC]	Avg. POC [9] [POC]	Avg. POC [10] [POC]	Avg. POC [11] [POC]	Avg. POC [12] [POC]	Avg. POC [13] [POC]	Avg. POC [14] [POC]	Avg. POC [15] [POC]	Avg. POC [16] [POC]	Avg. POC [17] [POC]	Avg. POC [18] [POC]	Avg. POC [19] [POC]	Avg. POC [20] [POC]	SMILES	also measured
130.5	132	137.5	127	124	142.5	105	119	110	105.5	106.5	233	103.5	104	137.5	102.5	130	112	103.5	94.5	Cc1c(-c2cnn(C)c2)nn(-c2ccccc2)c1NC(=O)N[C@H]1CCCc2ccccc21 [Example 2, (S)-1-(1′,4-dimethyl-1-phenyl-1H,1′H-3,4′-bipyrazol-5-yl)-3-(1,2,3,4-tetrahydronaphthalen-1-yl)urea]	Avg. POC [21]: 95 POC; Avg. POC [22]: 101.5 POC; Avg. POC [23]: 122.5 POC; Avg. POC [24]: 128 POC; Avg. POC [25]: 113 POC; Avg. POC [26]: 148 POC; Avg. POC [27]: 102 POC; Avg. POC [28]: 103 POC; Avg. POC [29]: 109 POC; Avg. POC [30]: 166.5 POC; Avg. POC [31]: 99.5 POC; Avg. POC [32]: 110.5 POC; Avg. POC [33]: 110.5 POC; Avg. POC [34]: 116 POC; Avg. POC [35]: 100 POC; Avg. POC [36]: 106 POC; Avg. POC [37]: −2 POC; Avg. POC [38]: 99 POC; Avg. POC [39]: 113 POC
105.5	127	113.5	112	106.5	114.5	104	118.5	89	93	83.5	122.5	96	102.5	122.5	144.5	123	127	98.5	133.5	Cc1c(-c2cnn(C)c2)nn(-c2ccccc2)c1NC(=O)NC1CCOc2cc(F)ccc21 (stereo not drawn) [Example 12, 1-(1′,4-dimethyl-1-phenyl-1H,1′H-[3,4′-bipyrazol]-5-yl)-3-(7-fluorochroman-4-yl)urea]	Avg. POC [21]: 97.5 POC; Avg. POC [22]: 97.5 POC; Avg. POC [23]: 99.5 POC; Avg. POC [24]: 97.5 POC; Avg. POC [25]: 110 POC; Avg. POC [26]: 118.5 POC; Avg. POC [27]: 103.5 POC; Avg. POC [28]: 115 POC; Avg. POC [29]: 106 POC; Avg. POC [30]: 148 POC; Avg. POC [31]: 97 POC; Avg. POC [32]: 106.5 POC; Avg. POC [33]: 104 POC; Avg. POC [34]: 103 POC; Avg. POC [35]: 98 POC; Avg. POC [36]: 79 POC; Avg. POC [37]: 1 POC; Avg. POC [38]: 99 POC; Avg. POC [39]: 115.5 POC
100	130	121	114.5	110.5	112.5	106	106.5	97	104	86	134.5	104	94	120	99.5	121.5	107.5	99.5	126	Cc1c(-c2ccc(=O)n(C)c2)nn(-c2ccccc2)c1NC(=O)NC1CN(CC(F)(F)F)Cc2ccccc21 (stereo not drawn) [Example 26, 1-(4-methyl-3-(1-methyl-6-oxo-1,6-dihydropyridin-3-yl)-1-phenyl-1H-pyrazol-5-yl)-3-(2-(2,2,2-trifluoroethyl)-1,2,3,4-tetrahydroisoquinolin-4-yl)urea]	Avg. POC [21]: 105 POC; Avg. POC [22]: 106.5 POC; Avg. POC [23]: 108.5 POC; Avg. POC [24]: 110.5 POC; Avg. POC [25]: 108.5 POC; Avg. POC [26]: 120.5 POC; Avg. POC [27]: 101.5 POC; Avg. POC [28]: 119 POC; Avg. POC [29]: 109.5 POC; Avg. POC [30]: 123.5 POC; Avg. POC [31]: 104.5 POC; Avg. POC [32]: 111 POC; Avg. POC [33]: 105.5 POC; Avg. POC [34]: 113 POC; Avg. POC [35]: 97 POC; Avg. POC [36]: 71.5 POC; Avg. POC [37]: 1.5 POC; Avg. POC [38]: 102 POC; Avg. POC [39]: 115.5 POC
92	121	102	118	112	101.5	98.5	104.5	87.5	103	90	122.5	102.5	94.5	117.5	133	134.5	99.5	104.5	122.5	COCc1ccc2c(c1)C(NC(=O)Nc1c(C)c(-c3cnn(C)c3)nn1-c1ccccc1)COC2 (stereo not drawn) [Example 32, 1-(1′,4-dimethyl-1-phenyl-1H,1′H-[3,4′-bipyrazol]-5-yl)-3-(6-(methoxymethyl)isochroman-4-yl)urea]	Avg. POC [21]: 99 POC; Avg. POC [22]: 97.5 POC; Avg. POC [23]: 115 POC; Avg. POC [24]: 99.5 POC; Avg. POC [25]: 102.5 POC; Avg. POC [26]: 116.5 POC; Avg. POC [27]: 103 POC; Avg. POC [28]: 103.5 POC; Avg. POC [29]: 105 POC; Avg. POC [30]: 123.5 POC; Avg. POC [31]: 108.5 POC; Avg. POC [32]: 115 POC; Avg. POC [33]: 100 POC; Avg. POC [34]: 108.5 POC; Avg. POC [35]: 92 POC; Avg. POC [36]: 88.5 POC; Avg. POC [37]: −0.5 POC; Avg. POC [38]: 103 POC; Avg. POC [39]: 119 POC
